From patent US20260364214A1, “MULTIVALENT FIBROBLAST ACTIVATION PROTEIN LIGANDS FOR TARGETED DELIVERY APPLICATIONS” (Philochem AG, priority 2022, published 2026)

Key:
[1] = Tolerability (body weight change) of 177Lu conjugates; format: in vivo, mouse (athymic Balb/c AnNRj-Foxn1); conditions: single administration, 250 nmol/kg, 250 MBq/kg
Experimental: The anti-cancer efficacy of ^177Lu-ESV6, ^177Lu-Bi-ESV6 and ^177Lu-Tri-ESV6 was assessed in athymic Balb/c AnNRj-Foxn1 mice bearing SK-RC-52.hFAP tumor in the right flank. ^177Lu-ESV6, ^177Lu-Bi-ESV6 or ^177Lu-Tri-ESV6 were intravenously administered at a dose of 250 nmol/kg, 250 MBq/kg (single administration on day 9 after tumor implantation). Therapy experiments started when the average volume of established tumors had reached 100-150 mm^3. Body weight of the animals and tumor volume were daily measured and recorded. Tumor dimensions were measured with an electronic caliper and tumor volume was calculated with the formula (long side, mm)×(short side, mm)×(short side, mm)×0.5. Animals were euthanized when one or more termination criterium indicated by the experimental license was reached. Prism 7 software (GraphPad Software) was used for data analysis.

SK-RC-52.hFAP tumors = experiment: Quantitative biodistribution in SK-RC-52.hFAP tumor bearing mice; format: in vivo, mouse (female athymic Balb/c AnNRj-Foxn1); conditions: i.v. 250 nmol/kg, 50 MBq/kg
Outline: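 Female athymic Balb/c nude mice carried subcutaneous SK-RC-52.hFAP tumors (5 million cells, ~300 mm^3). 177Lu-labeled conjugates were given i.v. at 250 nmol/kg, 50 MBq/kg. Tissues gamma-counted at several time points as %ID/g±SD, tumor values corrected for growth rate; tumor-to-organ ratios derived.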

With `N#C[C@@H]1CC(F)(F)CN1C(=O)CNC(=O)c1ccnc2c(NC(=O)CCC(=O)NCCNC(=O)CCC(C(=O)O)N3CCN(CC(=O)[O-])CCN(CC(=O)[O-])CCN(CC(=O)[O-])CC3)cccc12.[177Lu+3]` (stereo partly drawn) [^177Lu-ESV6-DOTAGA, reference compound] the “tolerability (body weight change), in words” value [1] was “very well tolerated”, the “Tumor to organs ratio, Blood” value (SK-RC-52.hFAP tumors; 24 h) was 628.54 and the “Injected dose per gram, Blood” value (SK-RC-52.hFAP tumors; 24 h post injection) was 0.00 % ID/g. The “Tumor to organs ratio, Blood” value (SK-RC-52.hFAP tumors; 48 h) was 2173.00, the “Injected dose per gram, Blood” value (SK-RC-52.hFAP tumors; 48 h post injection) was 0.00 % ID/g and the “Tumor to organs ratio, Heart” value (SK-RC-52.hFAP tumors; 24 h) was 497.97. The “Injected dose per gram, Heart” value (SK-RC-52.hFAP tumors; 24 h post injection) was 0.01 % ID/g, the “Tumor to organs ratio, Heart” value (SK-RC-52.hFAP tumors; 48 h) was 314.15 and the “Injected dose per gram, Heart” value (SK-RC-52.hFAP tumors; 48 h post injection) was 0.00 % ID/g. The “Tumor to organs ratio, Intestine” value (SK-RC-52.hFAP tumors; 24 h) was 240.54, the “Injected dose per gram, Intestine” value (SK-RC-52.hFAP tumors; 24 h post injection) was 0.01 % ID/g and the “Tumor to organs ratio, Intestine” value (SK-RC-52.hFAP tumors; 48 h) was 232.61. The “Injected dose per gram, Intestine” value (SK-RC-52.hFAP tumors; 48 h post injection) was 0.01 % ID/g, the “Tumor to organs ratio, Kidney” value (SK-RC-52.hFAP tumors; 24 h) was 5.41 and the “Injected dose per gram, Kidney” value (SK-RC-52.hFAP tumors; 24 h post injection) was 0.47 % ID/g. The “Tumor to organs ratio, Kidney” value (SK-RC-52.hFAP tumors; 48 h) was 4.22, the “Injected dose per gram, Kidney” value (SK-RC-52.hFAP tumors; 48 h post injection) was 0.28 % ID/g and the “Tumor to organs ratio, Liver” value (SK-RC-52.hFAP tumors; 24 h) was 37.66. The “Injected dose per gram, Liver” value (SK-RC-52.hFAP tumors; 24 h post injection) was 0.07 % ID/g, the “Tumor to organs ratio, Liver” value (SK-RC-52.hFAP tumors; 48 h) was 20.54 and the “Injected dose per gram, Liver” value (SK-RC-52.hFAP tumors; 48 h post injection) was 0.06 % ID/g. The “Tumor to organs ratio, Lung” value (SK-RC-52.hFAP tumors; 24 h) was 977.01, the “Injected dose per gram, Lung” value (SK-RC-52.hFAP tumors; 24 h post injection) was 0.01 % ID/g and the “Tumor to organs ratio, Lung” value (SK-RC-52.hFAP tumors; 48 h) was 805.04. For the same compound, the “Injected dose per gram, Lung” value (SK-RC-52.hFAP tumors; 48 h post injection) was 0.01 % ID/g, the “Tumor to organs ratio, Muscle” value (SK-RC-52.hFAP tumors; 24 h) was 159.12 and the “Injected dose per gram, Muscle” value (SK-RC-52.hFAP tumors; 24 h post injection) was 0.03 % ID/g. For the same compound, the “Tumor to organs ratio, Muscle” value (SK-RC-52.hFAP tumors; 48 h) was 142.88, the “Injected dose per gram, Muscle” value (SK-RC-52.hFAP tumors; 48 h post injection) was 0.01 % ID/g and the “Tumor to organs ratio, Spleen” value (SK-RC-52.hFAP tumors; 24 h) was 158.68. The “Injected dose per gram, Spleen” value (SK-RC-52.hFAP tumors; 24 h post injection) was 0.03 % ID/g, the “Tumor to organs ratio, Spleen” value (SK-RC-52.hFAP tumors; 48 h) was 503.00 and the “Injected dose per gram, Spleen” value (SK-RC-52.hFAP tumors; 48 h post injection) was 0.01 % ID/g. For the same compound, the “Tumor to organs ratio, Tail” value (SK-RC-52.hFAP tumors; 24 h) was 48.95, the “Injected dose per gram, Tail” value (SK-RC-52.hFAP tumors; 24 h post injection) was 0.05 % ID/g and the “Tumor to organs ratio, Tail” value (SK-RC-52.hFAP tumors; 48 h) was 45.61. For the same compound, the “Injected dose per gram, Tail” value (SK-RC-52.hFAP tumors; 48 h post injection) was 0.03 % ID/g, the “Injected dose per gram, Tumor” value (SK-RC-52.hFAP tumors; 24 h post injection) was 2.53 % ID/g and the “Injected dose per gram, Tumor” value (SK-RC-52.hFAP tumors; 48 h post injection) was 1.19 % ID/g.
